The record followed here is patent US6897319B2, “Useful aroyl pyrrole heteroaryl methanones and methanols” (Ortho-McNeil Pharmaceutical, Inc., priority 2001, dated 2005).

The structures appear in SMILES notation.

The subject of experiment [1] is voltage-gated sodium channels. Nature of the experiment: [14C]guanidinium flux assay in SK-N-SH cells (veratridine stimulus). The format is cell-based. Particulars: 10 μM compound, 100 μM veratridine. The protocol: Screening Assay for Voltage-Gated Sodium Channel Antagonists [^14C] Guanidinium Flux Assay
SK-N-SH neuroblastoma cells were maintained in a propagation medium containing modified Eagle's medium and 10% (v/v) fetal bovine serum and were incubated at 37° C. in a 5% CO2 atmosphere. Only cells with fewer than 20 passages were used in each assay. All drugs were prepared in DMSO, and the final concentration of solvent was less than 0.1% (v/v). Veratridine, a toxin that selectively promotes persistent activation of voltage-gated sodium channels, served as the stimulus.
SK-N-SH cells were plated at 1×10^5 cells/well in 96-well Cytostar-T microscintillating plates in propagation medium and experiments were performed 6-7 days after plating. Prior to assay, the SK-N-SH cells were washed twice with assay buffer containing 50 mM HEPES (pH 7.45), 5.4 mM potassium chloride, 0.8 mM magnesium chloride, 130 mM choline chloride, 5.5 mM glucose and 0.1 mg/mL bovine serum albumin. Next, the plates were allowed to equilibrate for 10 min at 37° C. in assay buffer. After this incubation period, the cells were stimulated with 100 μM veratridine in the presence or absence of investigational compounds prepared in a 96-well plate (prepared at a final concentration of 10 μM in DMSO). The 96-well dosing plate was prepared by mixing 25 μL of a drug/assay buffer solution per well with 25 μL of 0.7 μCi/mL [^14C]guanidine hydrochloride in assay buffer. 50 μL aliquots from the dosing plate were then added to the cells. One sample containing 100 μM veratridine and 10 μM tetrodotoxin accounted for nonspecific activity. The plates were incubated for 1 hr at room temperature and the radioactivity was counted in a 1450 Microbeta scintillation counter.

For experiment [2], the system named is maximal electroshock extensor seizure. Briefly: Mouse maximal electroshock test (MES) anticonvulsant model. It is filed as in vivo. As to conditions: po, orally administered, read-out: MES Response ED50. The method, then:
Procedure for Testing in Mouse Anticonvulsant Model
The activity of the present compounds as anticonvulsant agents was determined using a standard mouse “maximal electroshock test” (MES). In this test, activity was indicated by a block of the […] extensor seizure, as described by Swinyard, et al. (J. Pharmacol. Exptl. Therap., 1952, 106, 319). A more recent description of current anticonvulsant drug screening is given in Swinyard, et al., in Epilepsia, 1978, 19, 409.
The anticonvulsant activity of the instant compounds is shown in Table 5 and was evaluated according to the Swinyard (1952) method. The abbreviations used in the table have the following meanings: mpk refers to the dose orally administered in “mg per Kg;” and, ED50 refers to the “50% Effective Dose” orally administered in mpk. The values marked by an * represent the number of mice protected/number of mice tested; therefore, a value of 3/3 represents that the number of mice protected matched the number of mice tested at the indicated dose.
(Protection in the maximal electroshock model is a classic sign of anticonvulsant action.)

The subject of experiment [3] is carrageenan-induced thermal hyperalgesia. Nature of the experiment: Carrageenan Paw Hyperalgesia Test. The format is in vivo. As to conditions: mouse, orally 30 mg per Kg, 90 minutes following oral dosing. An excerpt: Procedure for Testing Hyperalgesic Effect
The procedure used to detect the antihyperalgesic activity of a compound of the present invention for which there is a good correlation with human efficacy is the Carrageenan Paw Hyperalgesia Test (as described in Sammons, et al., Brain Research, 2000, 876, 48-54).
Male, CD-1 mice (Charles River Laboratories) weighing 22-30 g each at the time of testing are housed in a climate-controlled, virus free environment for at least 7 days prior to testing. Food and water are available ad libitum up to test time.
Test mice are […] by injecting an irritant (e.g., 0.02 mL of a 1.0% carrageenan solution in 0.9% saline) subcutaneously into the subplantar tissue of one of the hind paws to stimulate an acute inflammatory reaction. The response of the animal following carrageenan injection is subsequently evaluated at a fixed later time and verified to be hyperalgesic relative to a baseline response obtained immediately prior to carrageenan injection.
The mice were dosed orally with either Compound 1 dissolved in a suspension of 20% hydroxypropyl beta cyclodextrin in distilled water or with vehicle alone at a fixed time following carrageenan injection. […] Response latencies were subsequently evaluated at fixed times following oral dosing to assess reversal of hyperalgesia caused by treatment with Compound 1 as compared to vehicle treatment. […]
On the technique in general: In the carrageenan paw model, swelling and tenderness develop within hours.

In experiment [4] the test system is carrageenan-induced paw swelling. Briefly: Carrageenan Paw Edema Model. It is filed as in vivo. As to conditions: rat, 100 mg/kg p.o., 2 hours post carrageenan administration. An excerpt: Procedure for Testing Antiinflammatory Response
The procedure used to detect the antiinflammatory activity of a compound of the present invention for which there is a good correlation with human efficacy is the Carrageenan Paw Edema Model (as described in Levy, L., Carrageenan Paw Edema in the Mouse, Life Sci., 1969, 8, 11, 601-6).
Male, Sprague-Dawley rats (Charles River Laboratories) 175-200 g are housed in a climate-controlled, virus free environment for at least 5 days prior to testing.
Carrageenan is prepared in saline (0.5% carrageenan solution in 0.9% saline) and injected in a 0.1 mL volume into the footpad of the rat. Test compound is administered orally by gavage 30-60 minutes prior to footpad challenge. Paws are dipped into a mercury plethysmograph edema computer (Buxco Electronics) and the foot displacement is recorded at 0 time and at various times after challenge with carrageenan. Rats treated with test compound are compared to vehicle controls for any inhibition of carrageenan induced paw swelling.
The % Inhibition (% I) by a compound tested was calculated according to the formula: %I=100−[100×(TCPV/VCPV)]; wherein TCPV is defined as the mean Change in Paw Volume in the Treated group and VCPV is the mean Change in Paw Volume in the Vehicle group.

As usually defined, the ED50 is the dose that gives a 50% effect, or the effect in half of the subjects. Consider `Cn1cc(C(=O)c2ccncc2)cc1C(=O)c1ccc(Cl)cc1` [Cpd 1, [5-(4-Chlorobenzoyl)-1-methyl-1H-pyrrol-3-yl]pyridin-4-ylmethanone], for which the “% GFI at 10 μM (% guanidinium flux inhibition)” value in experiment [1] is 23%. Further, in experiment [2], the ED50 was 157 mg/kg. Besides, the “% Recovery (reversal of hyperalgesia)” value in experiment [3] stood at 84%. Moreover, in experiment [4], the “% inhibition of carrageenan-induced paw swelling” value turned out to be 35%.
